Article PMC11952367 (bioRxiv, 2025)

Legend:
ΔC-TWIK-2 = biological target: T1, ΔC-TWIK-2 (Homo sapiens, UniProt Q9Y257); test: automated whole-cell patch clamp; format: cell-based
T1 sequence (Q9Y257 1-276): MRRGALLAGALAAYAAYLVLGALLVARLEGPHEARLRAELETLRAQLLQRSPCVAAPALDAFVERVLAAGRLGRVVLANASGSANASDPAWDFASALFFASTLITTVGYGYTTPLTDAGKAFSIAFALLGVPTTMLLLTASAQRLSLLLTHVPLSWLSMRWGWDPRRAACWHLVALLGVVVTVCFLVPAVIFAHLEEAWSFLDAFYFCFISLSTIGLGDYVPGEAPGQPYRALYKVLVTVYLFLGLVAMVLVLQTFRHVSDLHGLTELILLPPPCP

TWIK-2 = biological target: T2, TWIK-2 (Homo sapiens, UniProt Q9Y257); test: automated whole-cell patch clamp, HEK293 GnTI- cells; format: cell-based; conditions: inhibition; voltage step to +60 mV from holding -90 mV
T2 sequence (Q9Y257 1-313): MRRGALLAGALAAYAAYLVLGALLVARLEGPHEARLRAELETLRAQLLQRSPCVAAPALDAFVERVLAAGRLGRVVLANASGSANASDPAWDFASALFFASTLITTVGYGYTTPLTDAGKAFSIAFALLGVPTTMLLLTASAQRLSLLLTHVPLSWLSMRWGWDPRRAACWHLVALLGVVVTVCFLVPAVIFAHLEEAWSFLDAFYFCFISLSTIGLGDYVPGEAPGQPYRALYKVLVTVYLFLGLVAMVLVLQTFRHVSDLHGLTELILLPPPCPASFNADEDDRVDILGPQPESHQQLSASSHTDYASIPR

- IC50 (TWIK-2): 1.5 µM
Compound: COc1ccccc1C(=O)Nc1cccc(NC(=O)c2cccc(C)c2)c1 [ML365]
- percentage inhibition at maximum drug concentration (ΔC-TWIK-2): in ΔC-TWIK-2, we see a significant reduction in percentage inhibition at maximum drug concentration
